Earlier results, collected in patent US8937168B2, “Method of producing purified rebaudioside A compositions using solvent/antisolvent crystallization” (Cargill, Incorporated, priority 2007, dated 2015).

Settings: relative to sucrose; background statement

C=C1C[C@@]23CC[C@H]4[C@@](C)(CCC[C@@]4(C)C(=O)O[C@@H]4O[C@H](CO)[C@@H](O)[C@H](O)[C@H]4O)[C@@H]2CC[C@]1(O[C@@H]1O[C@H](CO)[C@@H](O)[C@H](O[C@@H]2O[C@H](CO)[C@@H](O)[C@H](O)[C@H]2O)[C@H]1O[C@@H]1O[C@H](CO)[C@@H](O)[C@H](O)[C@H]1O)C3 [Rebaudioside A, rebaudioside A]
times the sweetness of sucrose: 250-450 times
